Reference: publication PMC12097015, “Development of MDM2‐Targeting PROTAC for Advancing Bone Regeneration” (Advanced Science, 2025)

Tested on: hBMSCs
Test: Calcium deposit staining (X-Rhod-1) in hBMSCs
Assay type: cell-based, human
Details: X‐Rhod‐1, p < 0.05
Method: hBMSCs were differentiated in the presence of the 10 mM β‐glycerophosphate (Sigma‐Aldrich, G9422) and 50 µM ascorbic acid (Sigma‐Aldrich, A4403) in culture medium for 10 d. Subsequently, the cells were fixed with 4% PFA for 30 min, followed by two washes with Mg^2+‐and Ca^2+‐free dPBS (Welgene, LB‐204). To stain for calcium, X‐Rhod‐1 (Invitrogen, X14210) dye was diluted in Mg^2+‐and Ca^2+‐free dPBS at a concentration of 1 µM and incubated at room temperature in the dark for 1 h. The cells were then washed five times with Mg^2+‐and Ca^2+‐free dPBS at 10 min intervals. The samples were observed under a Cytation5 microscope (Agilent Technologies) at a wavelength of 595 nm.

## COc1ccc(C2=N[C@H](c3ccc(Cl)cc3)[C@H](c3ccc(Cl)cc3)N2C(=O)N2CCN(CC(=O)NCCCCCCCCOc3cccc4c3C(=O)N(C3CCC(=O)NC3=O)C4=O)C(=O)C2)c(OC(C)C)c1 (stereo in doubt) [CL144]
  calcium deposits compared to the control group: significantly increased
